Measured values as given in the supplement of paper PMC10307832.

Legend:
Test in all cases: relative viability (nuclei count vs DMSO), 5 days (fraction); higher = more cells survive
[1] = compound: CN(C)CC1=CC(=CC=C1)N=C(C2=CC=CC=C2)C3=C(NC4=C3C=CC(=C4)C(=O)N(C)C)O + O=C(CCCCCCC(=O)Nc1ccccc1)NO [Vorinostat] (partner 1 µM)
Procedure, shortened: (§1)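 Lung cancer cell lines were pin-tool dosed in 1536-well plates on the day after seeding, with either a lone drug or a fixed anchor-drug dose plus five library-drug doses (not always all listed) in √10 steps. Nuclei were counted on 4× images after 5 days. Relative viability is the ratio of treated-well to vehicle-well nuclei counts, with each value a median of duplicate plates.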

[2] = compound: CN(C)CC1=CC(=CC=C1)N=C(C2=CC=CC=C2)C3=C(NC4=C3C=CC(=C4)C(=O)N(C)C)O + COc1cc2c(Oc3ccc(NC(=O)C4(C(=O)Nc5ccc(F)cc5)CC4)cc3F)ccnc2cc1OCCCN1CCOCC1 [Foretinib] (partner 0.25 µM)
Procedure, shortened: as §1

[3] = compound: CN(C)CC1=CC(=CC=C1)N=C(C2=CC=CC=C2)C3=C(NC4=C3C=CC(=C4)C(=O)N(C)C)O + NC(=O)Nc1cc(-c2cccc(F)c2)sc1C(=O)N[C@H]1CCCNC1 [AZD7762] (partner 0.2 µM)
Procedure, shortened: as §1

[4] = compound: CN(C)CC1=CC(=CC=C1)N=C(C2=CC=CC=C2)C3=C(NC4=C3C=CC(=C4)C(=O)N(C)C)O + CS(=O)(=O)N1CCN(Cc2cc3nc(-c4cccc5[nH]ncc45)nc(N4CCOCC4)c3s2)CC1 [Pictilisib] (partner 1 µM)
Procedure, shortened: as §1

| Cell Line | relative viability ([1]; first compound 0.08 µM) | relative viability ([1]; first compound 0.253 µM) | relative viability ([1]; first compound 0.8 µM) | relative viability ([1]; first compound 2.53 µM) | relative viability ([1]; first compound 8 µM) | relative viability ([2]; first compound 0.08 µM) | relative viability ([2]; first compound 0.253 µM) | relative viability ([2]; first compound 0.8 µM) | relative viability ([2]; first compound 2.53 µM) | relative viability ([2]; first compound 8 µM) | relative viability ([3]; first compound 0.08 µM) | relative viability ([3]; first compound 0.253 µM) | relative viability ([3]; first compound 0.8 µM) | relative viability ([3]; first compound 2.53 µM) | relative viability ([3]; first compound 8 µM) | relative viability ([4]; first compound 0.08 µM) | relative viability ([4]; first compound 0.253 µM) | relative viability ([4]; first compound 0.8 µM) | relative viability ([4]; first compound 2.53 µM) | relative viability ([4]; first compound 8 µM) |
| --- | --- | --- | --- | --- | --- | --- | --- | --- | --- | --- | --- | --- | --- | --- | --- | --- | --- | --- | --- | --- |
| 201T | 0.988 | 0.961 | 0.908 | 0.946 | 0.879 | 1.12 | 1.01 | 1.07 | 0.957 | 0.774 | 0.675 | 0.6 | 0.627 | 0.607 | 0.525 | 0.674 | 0.709 | 0.681 | 0.662 | 0.675 |
| PC-3 [JPC-3] | 0.853 | 0.834 | 0.682 | 0.883 | 1.03 | 1.06 | 1.09 | 0.916 | 1.03 | 1.06 | 0.872 | 0.938 | 0.753 | 0.806 | 1.02 | 0.613 | 0.88 | 0.655 | 0.76 | 0.829 |
| CAL-12T | 0.989 | 0.715 | 0.808 | 0.93 | 0.82 | 1.09 | 1.22 | 1.44 | 0.864 | 1.29 | 0.627 | 0.668 | 0.58 | 0.647 | 0.687 | – | 0.74 | 0.482 | – | 0.459 |
| NCI-H1437 | 0.918 | 0.886 | 0.975 | 0.943 | 1.1 | 1.3 | 1.22 | 1.35 | 1.27 | 1.33 | 1.19 | 1.16 | 1.16 | 1.03 | 1.12 | 0.465 | 0.49 | 0.489 | 0.453 | 0.44 |
| RERF-LC-KJ | 0.744 | 0.703 | 0.605 | 0.64 | 0.681 | 0.865 | 0.894 | 0.873 | 0.833 | 0.907 | 1.02 | 1 | 0.796 | 1.05 | 0.866 | 0.518 | 0.595 | 0.57 | 0.625 | 0.515 |
| LK-2 | 0.352 | 0.28 | 0.272 | 0.331 | 0.262 | 1.15 | 1.16 | 1.27 | 1.15 | 1.17 | 0.457 | 0.416 | 0.426 | 0.493 | 0.341 | 0.52 | 0.482 | 0.591 | 0.53 | 0.473 |
| NCI-H1944 | 0.737 | 0.589 | 0.571 | 0.455 | 0.469 | 0.888 | 0.923 | 0.877 | 0.86 | 0.785 | 0.56 | 0.576 | 0.419 | 0.525 | 0.434 | 0.36 | 0.343 | 0.318 | 0.367 | 0.322 |
| HCC-827 | 0.861 | 0.803 | 0.801 | 0.867 | 0.815 | 1.05 | 1.08 | 1.01 | 1.02 | 0.876 | 0.232 | 0.26 | 0.156 | 0.229 | 0.182 | 1 | 1.05 | 0.863 | 1.06 | 0.8 |
| NCI-H322M | 0.8 | 0.957 | 0.874 | 0.743 | 0.67 | 0.887 | 1.02 | 0.831 | 0.831 | 0.666 | 0.53 | 0.599 | 0.53 | 0.448 | 0.588 | 0.499 | 0.742 | 0.388 | 0.496 | 0.701 |
| EPLC-272H | 0.426 | 0.519 | 0.402 | 0.49 | 0.315 | 0.654 | 0.776 | 0.534 | 0.681 | 0.51 | 0.229 | 0.252 | 0.203 | 0.302 | 0.214 | 0.301 | 0.331 | 0.323 | 0.347 | 0.457 |
| NCI-H1666 | 1.06 | 1.09 | 0.956 | 1.01 | 1.34 | 1.03 | 1.01 | 1 | 1 | 1.11 | 0.908 | 0.857 | 0.847 | 0.764 | 0.852 | 0.507 | 0.528 | 0.4 | 0.486 | 0.545 |
| NCI-H650 | 0.452 | 0.553 | 0.557 | 0.418 | 0.395 | 1.16 | 1.08 | 0.988 | 0.846 | 1.07 | 1.4 | 0.938 | 1.16 | 0.897 | 0.855 | 1 | 0.789 | 0.955 | 0.768 | 0.766 |
| LU99A | 0.517 | 0.515 | 0.495 | 0.416 | 0.469 | 0.787 | 0.842 | 0.926 | 0.809 | 0.781 | 0.45 | 0.335 | 0.337 | 0.24 | 0.299 | 0.322 | 0.33 | 0.366 | 0.301 | 0.305 |
| HARA | 0.6 | 0.528 | 0.433 | 0.715 | 0.487 | 0.398 | 1.02 | 1.06 | 0.867 | 0.79 | 0.296 | 0.351 | 0.155 | 0.258 | 0.324 | 0.401 | 0.472 | 0.405 | 0.466 | 0.412 |
| NCI-H1355 | 0.633 | 0.688 | 0.558 | 0.608 | 0.576 | 0.684 | 1.05 | 0.922 | 0.919 | 1.02 | 0.869 | 0.665 | 0.597 | 0.541 | 0.641 | 0.495 | 0.507 | 0.329 | 0.402 | 0.341 |
| LCLC-97TM1 | 0.683 | 0.728 | 0.728 | 0.623 | 0.551 | 0.958 | 0.821 | 0.822 | 0.917 | 0.975 | 0.312 | 0.328 | 0.241 | 0.281 | 0.281 | 0.174 | 0.218 | 0.157 | 0.224 | 0.305 |
